Source: patent US8637665B2, “Pyrrolo[2,L-C][L,4]benzodiazepine-benzothiazole or benzoxazole conjugates linked through piperazine moiety and process for the preparation thereof” (priority 2010, dated 2014)
Where two headings read alike, the source gives them in different places.

What was measured:
[1] = tested on: MCF 7 (breast cancer) cell line; assay: cells; assay type: cell-based; details: for GI50: read-out: GI50 MCF 7; for LC50 (concentration causing 50% cell death): read-out: LC50 MCF 7, 50% cell death
Procedure: (§1) Anticancer activity: In vitro biological activity studies were carried out at the Advance Center for Treatment Research & Education in Cancer (ACTREC), Navi Mumbai.
(§2) The compounds were evaluated for in vitro anticancer activity against eight tumour cells lines derived from seven cancer types (non-small-cell lung, colon, oral, cervix, ovarian, prostate, and breast cancer) as shown in Table 2. For each compound, dose response curves for each cell line were measured at a minimum of five concentrations at 10 fold dilutions. A protocol of 48 h continuous drug exposure was used and a sulforhodamine B (SRB) protein assay was used to estimate cell viability or growth. The concentration causing 50% cell growth inhibition (GI50) and 50% cell death (LC50, −50% growth) compared with the control was calculated. Compounds 9a-9l have been evaluated for their in vitro cytotoxicity in eight cell lines from seven human cancer types of lung (Hop-62, A-549) colon (COLO-205) cervix (Si—Ha), ovary (A-2780), prostate (PC3) breast (MCF7), oral (KB). The results are expressed as percent of cell growth determined relative to that of untreated control cells (Table-8 and table-9).

[2] = tested on: A 549 (lung cancer) cell line; assay: cells; assay type: cell-based; details: for GI50: mean of three determinations
Procedure: as §1, §2

[3] = tested on: Colo 205 (colon cancer) cell line; assay: cells; assay type: cell-based; details: for GI50: mean of three determinations; for CC50: read-out: LC50 Colo 205
Procedure: as §1, §2

[4] = tested on: A 2780 (ovary cancer) cell line; assay: cells; assay type: cell-based; details: for GI50: mean of three determinations; for CC50: read-out: LC50 A 2780, 50% cell death
Procedure: as §1, §2

[5] = tested on: HOP 62 (lung cancer) cell line; assay: cells; assay type: cell-based; details: for GI50: mean of three determinations; for LC50: read-out: LC50 HOP 62, 50% cell death
Procedure: as §1, §2

[6] = tested on: PC 3 (prostate cancer) cell line; assay: cells; assay type: cell-based; details: for GI50: read-out: GI50 PC 3; for CC50: read-out: LC50 Pc 3, 50% cell death
Procedure: as §1, §2

[7] = tested on: SiHa (cervix cancer) cell line; assay: cells; assay type: cell-based; details: for GI50: mean of three determinations; for LC50 (concentration causing 50% cell death): read-out: LC50 SiHa, 50% cell death
Procedure: as §1, §2

[8] = tested on: eight tumour cells lines derived from seven cancer types; assay: In vitro anticancer activity, SRB assay, panel of eight cell lines; assay type: cell-based; details: Homo sapiens, range over the eight cell lines per compound; read-out: GI50 range against cancer cell lines
Procedure: as §1, §2

[9] = tested on: KB (oral cancer) cell line; assay: In vitro anticancer activity, SRB assay, KB; assay type: cell-based, human; details: for GI50: mean of three determinations; for CC50: read-out: LC50 KB, 50% cell death
Procedure: as §1, §2

[10] = tested on: duplex-form calf thymus DNA (CT-DNA); assay: Thermal denaturation studies with calf thymus DNA (DNA binding affinity); details: [PBD]:[DNA] 1:5, CT-DNA 100 μM, ligand 20 μM, pH 7.00
Procedure: Compounds have been subjected to thermal denaturation studies with duplex-form calf thymus DNA (CT-DNA) using an modification of a reported procedure (Newman, M. S. Carcinog-compr. Surv. 1976,1, 203; (b) Hecht, S. S.; Loy, M.; Hoffman, Carcinog-compr. Surv. 1976, 1, 325). Working solutions in aqueous buffer (10 mM NaH2PO4/Na2HPO4, 1 mM Na2EDTA, pH 7.00+0.01) containing CT-DNA (100 μm in phosphate) and the PBD (20 μm) have been prepared by addition of concentrated PBD solutions in DMSO to obtain a fixed [PBD]/[DNA] molar ratio of 1:5. The DNA-PBD solutions have been incubated at 37° C. for 0 and 18 h prior to analysis. Samples have been monitored at 260 using a Beckman DU-800 spectrophotometer fitted with high performance temperature controller, and heated at 1° C. min^−1 in the 40-110° C. range. DNA helix→coil transition temperatures (Tm) have been obtained from the maxima in the d(A260)/dT derivative plots. Drug-induced alterations in DNA melting behavior are given by: ΔTm=Tm(DNA+PBD)−Tm(DNA alone), where the Tm value for the PBD-free CT-DNA is 69.1±0.01.
The DNA binding activity for these novel C8-linked benzothiazole, benzoxazole-PBD hybrids has been examined by thermal denaturation studies using calf thymus (CT) DNA. […] The data for the compounds 9a-n is included in Table 7 for comparison.

[11] = Homo sapiens, MCF7, 48 h, 48 h drug exposure, SRB
[12] = Homo sapiens, A549, 48 h, read-out: GI50 A 549, 48 h drug exposure, SRB
[13] = Homo sapiens, A549, 48 h, read-out: LC50 A 549, 50% cell death, 48 h drug exposure, SRB
[14] = Homo sapiens, COLO 205, 48 h, read-out: GI50 Colo 205, 48 h drug exposure, SRB
[15] = Homo sapiens, A2780, 48 h, read-out: GI50 A 2780, 48 h drug exposure, SRB
[16] = Homo sapiens, A2780, 48 h, 48 h drug exposure, SRB
[17] = Homo sapiens, HOP-62, 48 h, read-out: GI50 HOP 62, 48 h drug exposure, SRB
[18] = Homo sapiens, HOP-62, 48 h, 48 h drug exposure, SRB
[19] = Homo sapiens, 48 h, 48 h drug exposure, SRB
[20] = Homo sapiens, SiHa, 48 h, read-out: GI50 SiHa, 48 h drug exposure, SRB
[21] = Homo sapiens, SiHa, 48 h, 48 h drug exposure, SRB
[22] = Homo sapiens, 48 h, read-out: GI50 KB, 48 h drug exposure, SRB
[23] = read-out: GI50 HOP 62, 48 h drug exposure, SRB
[24] = 48 h drug exposure, SRB, mean of three determinations

Row | Compound | GI50 ([1]; Homo sapiens, MCF7, 48 h) [µM] | LC50 (concentration causing 50% cell death) [1, 11] [µM] | GI50 [2, 12] [µM] | CC50 [2, 13] [µM] | GI50 [3, 14] [µM] | CC50 ([3]; Homo sapiens, COLO 205, 48 h) [µM] | GI50 [4, 15] [µM] | CC50 [4, 16] [µM] | GI50 [5, 17] [µM] | LC50 [5, 18] [µM] | GI50 ([6]; Homo sapiens, 48 h) [µM] | CC50 [6, 19] [µM] | GI50 [7, 20] [µM] | LC50 (concentration causing 50% cell death) [7, 21] [µM] | GI50 [8] [µM] | GI50 [9, 22] [µM] | CC50 [9, 19] [µM] | ΔTm after incubation at 37° C. for 0 h [10] [°C] | ΔTm after incubation at 37° C. for 18 h [10] [°C] | also measured
1 | COc1cc(-c2nc3ccccc3s2)ccc1OCCCN1CCN(CCCOc2cc3c(cc2OC)C(=O)N2CCC[C@H]2C=N3)CC1 [Compound 9b] | < 0.01 | < 0.01 | 0.12 | > 100 | 0.09 | > 100 | < 0.01 | 0.12 | < 0.01 | 28 | < 0.01 | 2.4 | < 0.01 | 2.4 | ≤ 0.12 | < 0.01 | 2.2 | 12.1 | 12.7 | 
2 | COc1cc2c(cc1OCCCN1CCN(CCCOc3cccc(-c4nc5ccccc5o4)c3)CC1)N=C[C@@H]1CCCN1C2=O [Compound 9k, 7-Methoxy-8-[3-(4-{3-[3(1,3-benzoxazol-2-yl)-phenoxy]propyl}piperazin-1-yl)propyl]oxy-(11aS)-1,2,3,11a-tetrahydro-5H-pyrrolo[2,1-c][1,4]benzodiazepin-5-one] | < 0.01 | 2.6 | < 0.01 | > 100 | 0.17 | > 100 | 0.086 | 2.16 |  | 25 | < 0.01 | 26 | 0.13 | 27.8 | ≤ 0.17 | 0.11 |  | 9.7 | 10.2 | GI50 [5, 23]: 0.01 µM
3 | COc1cc(-c2nc3ccccc3o2)ccc1OCCCN1CCN(CCCOc2cc3c(cc2OC)C(=O)N2CCC[C@H]2C=N3)CC1 [Compound 9j] | < 0.01 | < 0.01 | < 0.01 | > 100 | 0.11 | > 100 | < 0.01 | 0.139 | < 0.01 | 2.3 | < 0.01 | 2.5 | < 0.01 | 28 | ≤ 0.11 | < 0.01 | 0.2 | 10.1 | 10.3 | 
4 | COc1cc2c(cc1OCCCCN1CCN(CCCCOc3ccc(-c4nc5ccc(F)cc5s4)cc3)CC1)N=C[C@@H]1CCCN1C2=O [Compound 9g, 7-Methoxy-8-[4-(4-{4-[4(6-fluoro-1,3-benzothiazol-2-yl)-phenoxy]butyl}piperazin-1-yl)butyl]oxy-(11aS)-1,2,3,11a-tetrahydro-5H-pyrrolo[2,1-c][1,4]benzodiazepin-5-one] | 0.14 | 2.4 | < 0.01 | > 100 | 0.1 | > 100 | 0.147 | 2.25 | 0.16 | > 100 | 0.16 | 31 | 0.168 | 0.311 | ≤ 0.168 | 0.16 | > 100 | 12.3 | 12.6 | 
5 | COc1cc2c(cc1OCCCCN1CCN(CCCCOc3ccc(-c4nc5ccccc5s4)cc3)CC1)N=C[C@@H]1CCCN1C2=O [Compound 9l, 7-Methoxy-8-[4-(4-{4-[4(1,3-benzothiazol-2-yl)-phenoxy]butyl}piperazin-1-yl)butyl]oxy-(11aS)-1,2,3,11a-tetrahydro-5H-pyrrolo[2,1-c][1,4]benzodiazepin-5-one] |  | 0.16 |  |  |  | > 100 |  | 2.1 |  |  |  | 2.1 |  | 28 | ≤ 0.125 |  | 2 | 11.5 | 11.8 | GI50 [1, 24]: < 0.01 µM; CC50 ([2]; human, 48 h): 30 µM; GI50 ([2]; read-out: GI50 A 549, 48 h drug exposure, SRB): < 0.01 µM; GI50 ([3]; read-out: GI50 Colo 205, 48 h drug exposure, SRB): < 0.01 µM; GI50 ([4]; read-out: GI50 A 2780, 48 h drug exposure, SRB): 0.099 µM; CC50 ([5]; human, 48 h): 2.5 µM; GI50 [5, 23]: 0.11 µM; GI50 [6, 24]: < 0.01 µM; GI50 ([7]; read-out: GI50 SiHa, 48 h drug exposure, SRB): 0.125 µM; GI50 ([9]; 48 h drug exposure, SRB, listed as 91, read-out: GI50 KB): 0.11 µM; GI50 ([9]; 48 h drug exposure, SRB, read-out: GI50 KB): 0.11 µM
6 | COc1cc2c(cc1OCCCN1CCN(CCCOc3ccc(-c4nc5ccccc5o4)cc3)CC1)N=C[C@@H]1CCCN1C2=O [Compound 9i] | < 0.01 | 0.15 | < 0.01 | > 100 | < 0.01 | > 100 | 0.08 | 2.25 | 0.11 | 27 | < 0.01 | 0.23 | 0.117 | 28.5 | ≤ 0.117 | < 0.01 | 28 | 9.5 | 9.7 | 
7 | COc1cc2c(cc1OCCCN1CCN(CCCOc3ccc(-c4nc5ccc(F)cc5s4)cc3)CC1)N=C[C@@H]1CCCN1C2=O [Compound 9c] | < 0.01 | 0.17 | < 0.01 | 33 | 0.13 | > 100 | 0.116 | 2.3 | 0.11 | 29 | 0.11 | 2.3 | 0.13 | 27 | ≤ 0.13 | 0.11 | 26 | 10.3 | 10.7 | 
